In patent US20230181535A1, “UBIQUITIN-LIGASE INHIBITORS FOR THE TREATMENT OF CANCER” (FUNDACIÓN PROFESOR NOVOA SANTOS, priority 2020, published 2023):
Values joined by “and” are separate entries in the source; they are usually repeats but may differ in a detail not shown here. Identical values can stand only once.

Tests used:
[1] = tested on: mouse cryopreserved hepatocytes; test: Metabolite profiling in mouse cryopreserved hepatocytes; format: in vitro ADME; conditions: for Area percentage in sample, 0 minute control / Area percentage in sample, 10 minute sample / Area percentage in sample, 20 minute sample / Absolute area in sample, 0 minute control / Absolute area in sample, 10 minute sample / Absolute area in sample, 20 minute sample: mouse hepatocyte samples; for Absolute area in sample, 0 minute control / Absolute area in sample, 10 minute sample / Absolute area in sample, 20 minute sample: XIC area
Procedure: Test compound (final substrate concentration 3 μM; final DMSO concentration 0.25%) were pre-incubated at 37° C., prior to the addition of a suspension of cryopreserved hepatocytes (final cell density 0.5×10^6 viable cells/mL in Williams E media supplemented with 2 mM L glutamine and 25 mM HEPES) to initiate the reaction. The reactions were stopped with acetonitrile containing internal standard at the appropriate time points ([…]). The termination plates were centrifuged at 2500 rpm at 4° C. for 30 minute to precipitate the protein. Following the hepatocyte stability assays, the samples were utilized for metabolite profiling. Hepatocyte stability in mouse and human was performed by using the incubation of tested compound (3 μM) with cryopreserved hepatocytes in suspension. Samples were removed at 6 time points over the course of a 60 min experiment and remaining test compound at each time point was analysed by using LC-MS/MS. Then, data was analysed and an intrinsic clearance (CLint) with standard error and half-life (t½) reported.
The samples from the hepatocyte stability assay were utilized for metabolite profiling. The 10 and 20 minute samples were compared to the 0 minute control sample to identified the metabolites formed. […] The areas and percentages reported for the parent and metabolites have been calculated using the XIC data; it has been assumed that each metabolite has the same ionization efficiency and that the sensitivity of the metabolite has not been affected by the biotransformation. […] For accuracy, a ppm error of less than 5 is desirable; when the response for a metabolite observed is low the ppm error maybe greater than 5. Where a metabolite has been referred to as a potential oxidation it can refer to a potential hydroxylation, epoxidation or oxide formation. Representative collision induced dissociation (CID) mass spectra were obtained for the metabolites found. Structural elucidation was then performed on the metabolite observed. The data are processed using Metabolynx XS (Waters Ltd). When the compound structure has been provided, the data is processed using mass defect filtering1 with the dealkylation tool2; if the structure is not provided then mass defect, filtering alone is used. […] The de-alkylation tool is used in addition to the mass defect filtering to take into account that when the molecule cleaves metabolically e.g. at an amine group, the mass defect may change. Following this initial processing, the data is compared to the control sample to determine whether a series of expected metabolites are observed. Finally, the same data set is processed, using 1 a.m.u. windows across the whole data acquisition range to look for non-predicted or unexpected metabolites. After the automated Metabolynx XS processing, the data are reviewed to confirm the validity of the detected metabolites and to ensure correct assignment of the metabolite observed. The elemental formula for the observed ion and compound is reported, along with the error in parts per million (ppm) for the measured ion compared to the theoretical mass of the ion. […] Therefore, structures are depicted in Markush format3 with the shaded area showing potential sites of modification. Hepatocyte stability, metabolic profiling and test compound analysis was performed by Cyprotex Discovery.

[2] = tested on: non-cancerous HEK293T cells; test: MTT cell viability assay, HEK293T; format: cell-based, human; conditions: concentrations tested in the previous assays
Procedure: For cytotoxicity assays, 1×10^4 cells were seeded per well into a 96-well plate. After 24 h cells were treated with the indicated inhibitors for 72 h and a MTT colorimetric cell viability assay was performed following manufacturer's instructions (Sigma Aldrich, St Louis, Mo.). Absorbance was measured at 570 and 630 nm using a Multiskan Plus Reader (Nanoquant Infinite M200 Tecan Trading AG, Switzerland). Dose-response curves were designed with Graph Pad Prism Software and the half-maximal inhibitory concentration (IC50) values were calculated. Represented data are the mean±SEM of at least three independent experiments with six replicates per condition.

[3] = tested on: LoVo cells; test: Phase-contrast cell phenotype, LoVo; format: cell-based
Procedure: (§1) MDCK, HEK293T, HepG2, MCF7 and ACHN cells were cultured in Dulbecco's Modified Eagles Medium (DMEM). MDCK stably expressing Hakai cells (Hakai-MDCK) were previously reported and were growth in DMEM with G418 (800 μg/ml). […] LoVo and PC-3 cells were cultured in F-12K Medium (Kaighn's Modification of Ham's F-12 Medium) and HT-29 and HCT116 cells in McCoy's 5a Medium Modified. 5637 cells were cultured in RPMI medium. All culture media were supplemented with 1% penicillin/streptomycin and 10% of heat-inactivated fetal bovine serum (FBS) at 37° C. in a humidified incubator with 5% CO2. Cells were monthly tested for mycoplasma contamination and used only for 1-3 months after defrosted. LoVo and HT29 cells were authenticated with the StemElite ID system (Promega). For phase-contrast images, culture cells were photographed with a Nikon Eclipse-TI microscope.

[4] = tested on: bladder cancer 5637 cells; test: BrdU proliferation assay, 5637; format: cell-based, human; conditions: 48 h
Procedure: (§2) For BrdU assays, 1×10^4 of indicated cells were plated per well into a 96-well plate. After 24 h, cells were treated with the indicated inhibitors for 48 h. Three independent experiments were plated with six replicates per each condition. Cells were treated with […] BrdU for 2 h. BrdU incorporation into newly synthesized DNA was measured using a cell proliferation colorimetric immunoassay kit according to the manufacturer's instructions (Roche, Switzerland). Results are expressed as mean±S.D. Results are represented as percentage of positive cells (mean±S.D) of three independent experiments.

[5] = tested on: epithelial MDCK cells; test: Phase-contrast cell phenotype, MDCK; format: cell-based
Procedure: as §1

[6] = tested on: Hakai-MDCK cells; test: BrdU proliferation assay, Hakai-MDCK; format: cell-based; conditions: 48 h
Procedure: as §2

[7] = tested on: HT-29 cells; test: Soft agar-colony formation assay, HT-29; format: cell-based, human; conditions: 28 days
Procedure: Soft agar-colony formation assay was performed on 12-well plates in triplicates at a density of 5×10^3 MDCK and MDCK-Hakai cells/well, or 12×10^3 HT29 cells/well. Cells were seeded in medium with 0.5% low-melting agarose over a layer with 0.75% low-melting agarose (Lonza Rockland, Me., USA). Cells were treated with the indicated inhibitors and DMSO was used as vehicle. Treatment was refreshed every 3 days and, after 21 days for MDCK and MDCK-Hakai cells or 28 days for HT29 cells, number of colonies were quantified. Quantification of five randomly-selected fields of each condition was photographed with a Nikon Eclipse-TI microscope (objective 4×). Experiments were conducted with three triplicates and were repeated three times. Data are represented as mean±SD.

polarity compared to parent (LCMS) ([1]; metabolite from incubating compound #1 with mouse hepatocytes)	Compound	found in hepatocyte stability assay samples (Mouse) [1]	Area percentage in sample, 0 minute control [1]	Area percentage in sample, 10 minute sample [1]	Area percentage in sample, 20 minute sample [1]	Absolute area in sample, 0 minute control [1]	Absolute area in sample, 10 minute sample [1]	Absolute area in sample, 20 minute sample [1]	cytotoxic effect (cell viability, MTT) [2]	cell phenotype by phase contrast [3]	cell proliferation (BrdU) [4]	cell phenotype by phase contrast [5]	cell proliferation (BrdU) [6]	colony formation in soft agar [7]
more polar than the parent	O=C(O)c1ccc(-n2nnnc2SCC(O)c2ccc([N+](=O)[O-])cc2)cc1 (stereo not drawn) [MKH1]	✓	2.72% and 2.76%	73.8%	94%	1235	39618	45169	no cytotoxic effect					
	O=C(O)c1ccc(-n2nnnc2SCC(=O)c2ccc([N+](=O)[O-])cc2)cc1 [Hakin-1, 4-(5-[2-(4-nitrophenyl)-2-oxoethyl]thiol-1H-tetrazol-1-yl)benzoic acid]	✓	97.2%	26.2%	5.99%	43574	14090	2877		modestly induce an epithelial phenotype	inhibited cell proliferation	no effect was observed	suppress proliferation	robust inhibition of colony formation
